Tests used:
Type in all cases: cell-based
Streptococcus mutans = test: Paper disc antibacterial test, Streptococcus mutans; conditions: 24-48 h incubation, untreated: no inhibition
Porphyromonas gingivalis = test: Paper disc antibacterial test, Porphyromonas gingivalis; conditions: anaerobic, 24-48 h incubation, untreated: no inhibition
PGE2 = PGE2 inhibition in LPS-stimulated macrophages (ELISA); conditions: LPS 1 ㎍/ml

O=C(/C=C/c1ccc(O)c2c1[C@H](C(=O)O)[C@@H](c1ccc(O)c(O)c1)O2)O[C@H](Cc1ccc(O)c(O)c1)C(=O)O [리소스퍼믹 액시드, lithospermic acid]
growth inhibition zone diameter (Streptococcus mutans; 10 mg/disc, 8 mm disc, 37, BHI): ~10.0 mm
zone of inhibition at 10 mg/disc (Streptococcus mutans; Streptococcus mutans, 8 mm disc, 37, BHI, read-out: growth inhibition zone diameter): 10.7 mm
growth inhibition zone diameter (Porphyromonas gingivalis; 10 mg/disc, 8 mm disc, 37, TSA Hemin Menadione medium): ~10.0 mm
zone of inhibition at 10 mg/disc (Porphyromonas gingivalis; Porphyromonas gingivalis, 8 mm disc, 37, TSA Hemin Menadione medium, read-out: growth inhibition zone diameter): 9.8 mm
PGE2 inhibition, concentration dependence (in words) (PGE2): 농도 의존적으로 PGE2를 억제하는 효과
inhibition at 2 ppm (PGE2; Macrophage, 2ppm, 24 h, compared with LPS-only group): ~50%
inhibition at 20 ppm (PGE2; Macrophage, 20ppm, 24 h, compared with LPS-only group): ~70%

Reference: patent publication KR20180046249A, “리소스퍼믹 액시드를 포함하는 구강질환 예방 또는 치료용 조성물” (주식회사 엘지생활건강, priority 2016, dated 2018)
